{
  "source": "patent US12011444B2",
  "about": "“N-substituted indole derivatives as PGE2 receptor modulators” (Idorsia Pharmaceuticals Ltd, priority 2015, dated 2024)",
  "key": {"[1]": {"target": "PTGER2 (EP2) (Homo sapiens (Human), UniProt P43116)", "sequence (P43116 whole entry)": "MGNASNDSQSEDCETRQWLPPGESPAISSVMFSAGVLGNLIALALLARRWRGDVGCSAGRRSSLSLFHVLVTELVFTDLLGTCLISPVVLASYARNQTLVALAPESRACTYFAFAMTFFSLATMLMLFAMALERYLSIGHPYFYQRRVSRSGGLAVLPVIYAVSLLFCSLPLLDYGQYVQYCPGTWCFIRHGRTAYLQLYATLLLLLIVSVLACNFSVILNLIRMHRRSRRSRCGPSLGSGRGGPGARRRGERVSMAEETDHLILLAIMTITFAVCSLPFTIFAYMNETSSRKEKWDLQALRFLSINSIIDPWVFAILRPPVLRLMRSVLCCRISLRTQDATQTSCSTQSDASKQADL", "experiment": "hEP2 b-arrestin assay (PathHunter HEK 293 PTGER2 b-arrestin cells)", "format": "cell-based", "settings": "antagonistic activity on hEP2; mean where measured multiple times", "summary_of_the_method": "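Readout is β-galactosidase complementation luminescence, expressed as percent of DMSO control (duplicates). PathHunter HEK293 EP2/β-arrestin 2 cells, grown 24 h, received compound for 15 min at 37 °C before a 120 min challenge with PGE2 at 5 μM final, followed by 1 h detection at room temperature.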"}, "[2]": {"target": "PTRGER4 (EP4) (Homo sapiens (Human), UniProt P35408)", "sequence (P35408 whole entry, looked up, the tested form may be a part)": "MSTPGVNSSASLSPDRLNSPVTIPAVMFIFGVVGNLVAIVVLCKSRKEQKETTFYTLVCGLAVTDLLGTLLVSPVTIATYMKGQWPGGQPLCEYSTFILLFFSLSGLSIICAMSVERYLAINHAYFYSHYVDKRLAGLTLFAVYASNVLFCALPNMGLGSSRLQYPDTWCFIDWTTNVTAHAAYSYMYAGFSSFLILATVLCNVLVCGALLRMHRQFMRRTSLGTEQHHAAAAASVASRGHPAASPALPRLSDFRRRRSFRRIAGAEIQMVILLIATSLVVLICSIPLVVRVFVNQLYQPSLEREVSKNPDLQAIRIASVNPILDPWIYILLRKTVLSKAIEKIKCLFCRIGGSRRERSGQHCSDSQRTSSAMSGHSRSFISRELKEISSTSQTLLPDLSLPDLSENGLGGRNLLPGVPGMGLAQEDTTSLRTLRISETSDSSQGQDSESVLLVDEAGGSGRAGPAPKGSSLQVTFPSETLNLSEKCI", "experiment": "hEP4 b-arrestin assay (PathHunter HEK 293 PTGER4 b-arrestin cells)", "format": "cell-based", "settings": "antagonistic activity on hEP4; mean where measured multiple times", "summary_of_the_method": "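Antagonist mode: compound is given 15 min at 37 °C, then 20 nM (final) PGE2 for 120 min, in HEK293 cells stably expressing EP4 fused to ProLink and β-arrestin 2 fused to EA. Recruitment read as β-gal luminescence after 1 h reagent at room temperature, as percent of DMSO control.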"}},
  "data": [
    {"smiles": "Cc1cc(F)c(F)c2c1cc(C)n2CCNc1cc(-c2ccc(-c3c[nH]cn3)cc2)ncn1", "note": "[compound 176, [2-(6,7-Difluoro-2,4-dimethyl-indol-1-yl)-ethyl]-{6-[4-(1H-imidazol-4-yl)-phenyl]-pyrimidin-4-yl}-amine]", "values": [
      {"measurement": "IC50", "setting": "[1]", "result": 36, "unit": "nM"},
      {"measurement": "IC50", "setting": "[2]", "result": 71, "unit": "nM"}
    ]},
    {"smiles": "Cc1cc(-c2ccc(-c3cc(NCCn4c(C)cc5c(C)cc(F)cc54)ncn3)cc2)n[nH]1", "note": "[compound 178, [2-(6-Fluoro-2,4-dimethyl-indol-1-yl)-ethyl]-{6-[4-(5-methyl-1H-pyrazol-3-yl)-phenyl]-pyrimidin-4-yl}-amine]", "values": [
      {"measurement": "IC50", "setting": "[1]", "result": 18, "unit": "nM"},
      {"measurement": "IC50", "setting": "[2]", "result": 168, "unit": "nM"}
    ]},
    {"smiles": "COc1cccc2c1cc(C)n2CCNc1cc(-c2ccc(-c3noc(C)n3)cc2)ncn1", "note": "[compound 179, [2-(4-Methoxy-2-methyl-indol-1-yl)-ethyl]-{6-[4-(5-methyl-[1,2,4]oxadiazol-3-yl)-phenyl]-pyrimidin-4-yl}-amine]", "values": [
      {"measurement": "IC50", "setting": "[1]", "result": 20, "unit": "nM"},
      {"measurement": "IC50", "setting": "[2]", "result": 880, "unit": "nM"}
    ]},
    {"smiles": "COc1cccc2c1cc(C)n2CCNc1cc(-c2ccc(-c3cc(N)no3)cc2)ncn1", "note": "[compound 180, {6-[4-(3-Amino-isoxazol-5-yl)-phenyl]-pyrimidin-4-yl}-[2-(4-methoxy-2-methyl-indol-1-yl)-ethyl]-amine]", "values": [
      {"measurement": "IC50", "setting": "[1]", "result": 3, "unit": "nM"},
      {"measurement": "IC50", "setting": "[2]", "result": 16, "unit": "nM"}
    ]},
    {"smiles": "COc1ccc(F)c2c1cc(C)n2CCNc1cc(-c2cnc(N3CCOCC3)s2)ncn1", "note": "[compound 181]", "values": [
      {"measurement": "IC50", "setting": "[1]", "result": 173, "unit": "nM"},
      {"measurement": "IC50", "setting": "[2]", "result": 864, "unit": "nM"}
    ]},
    {"smiles": "Cc1cc(F)cc2c1cc(C)n2CCNc1cc(-c2ccc(-c3noc(=O)[nH]3)cc2)ncn1", "note": "[compound 182]", "values": [
      {"measurement": "IC50", "setting": "[1]", "result": 56, "unit": "nM"},
      {"measurement": "IC50", "setting": "[2]", "result": 141, "unit": "nM"}
    ]},
    {"smiles": "Cc1cc(F)cc2c1cc(C)n2CCNc1cc(-c2ccc3c(C(=O)O)n[nH]c3c2)ncn1", "note": "[compound 183, 6-{6-[2-(6-Fluoro-2,4-dimethyl-indol-1-yl)-ethylamino]-pyrimidin-4-yl}-1H-indazole-3-carboxylic acid]", "values": [
      {"measurement": "IC50", "setting": "[1]", "result": 49, "unit": "nM"},
      {"measurement": "IC50", "setting": "[2]", "result": 637, "unit": "nM"}
    ]},
    {"smiles": "COc1cc(F)cc2c1cc(C)n2CCNc1cc(-c2ccc(-c3ncno3)cc2)ncn1", "note": "[compound 184, [2-(6-Fluoro-4-methoxy-2-methyl-indol-1-yl)-ethyl]-[6-(4-[1,2,4]oxadiazol-5-yl-phenyl)-pyrimidin-4-yl]-amine]", "values": [
      {"measurement": "IC50", "setting": "[1]", "result": 15, "unit": "nM"},
      {"measurement": "IC50", "setting": "[2]", "result": 170, "unit": "nM"}
    ]},
    {"smiles": "Cc1ccc(F)c2c1cc(C)n2CCNc1cc(-c2ccc(-c3noc(=O)[nH]3)cc2)ncn1", "note": "[compound 185, 3-(4-{6-[2-(7-Fluoro-2,4-dimethyl-indol-1-yl)-ethylamino]-pyrimidin-4-yl}-phenyl)-4H-[1,2,4]oxadiazol-5-one]", "values": [
      {"measurement": "IC50", "setting": "[1]", "result": 30, "unit": "nM"},
      {"measurement": "IC50", "setting": "[2]", "result": 302, "unit": "nM"}
    ]},
    {"smiles": "COc1ccc(F)c2c1cc(C)n2CCNc1cc(-c2ccc(-c3ncno3)cc2)ncn1", "note": "[compound 186, [2-(7-Fluoro-4-methoxy-2-methyl-indol-1-yl)-ethyl]-[6-(4-[1,2,4]oxadiazol-5-yl-phenyl)-pyrimidin-4-yl]-amine]", "values": [
      {"measurement": "IC50", "setting": "[1]", "result": 7, "unit": "nM"},
      {"measurement": "IC50", "setting": "[2]", "result": 124, "unit": "nM"}
    ]},
    {"smiles": "Cc1cc(F)c(F)c2c1cc(C)n2CCNc1cc(-c2ccc(-c3ncno3)cc2)ncn1", "note": "[compound 187, [2-(6,7-Difluoro-2,4-dimethyl-indol-1-yl)-ethyl]-[6-(4-[1,2,4]oxadiazol-5-yl-phenyl)-pyrimidin-4-yl]-amine]", "values": [
      {"measurement": "IC50", "setting": "[1]", "result": 20, "unit": "nM"},
      {"measurement": "IC50", "setting": "[2]", "result": 198, "unit": "nM"}
    ]},
    {"smiles": "COc1cc(F)cc2c1cc(C)n2CCNc1cc(-c2ccc(-c3c[nH]cn3)cc2)ncn1", "note": "[compound 188, [2-(6-Fluoro-4-methoxy-2-methyl-indol-1-yl)-ethyl]-{6-[4-(1H-imidazol-4-yl)-phenyl]-pyrimidin-4-yl}-amine]", "values": [
      {"measurement": "IC50", "setting": "[1]", "result": 17, "unit": "nM"},
      {"measurement": "IC50", "setting": "[2]", "result": 43, "unit": "nM"}
    ]},
    {"smiles": "Cc1ccc(F)c2c1cc(C)n2CCNc1cc(-c2ccc(-c3cc(N)no3)cc2)ncn1", "note": "[compound 189, {6-[4-(3-Amino-isoxazol-5-yl)-phenyl]-pyrimidin-4-yl}-[2-(7-fluoro-2,4-dimethyl-indol-1-yl)-ethyl]-amine]", "values": [
      {"measurement": "IC50", "setting": "[1]", "result": 19, "unit": "nM"},
      {"measurement": "IC50", "setting": "[2]", "result": 106, "unit": "nM"}
    ]},
    {"smiles": "COc1ccc(F)c2c1cc(C)n2CCNc1cc(-c2ccc(-n3cccn3)cc2)ncn1", "note": "[compound 190]", "values": [
      {"measurement": "IC50", "setting": "[1]", "result": 53, "unit": "nM"},
      {"measurement": "IC50", "setting": "[2]", "result": 193, "unit": "nM"}
    ]},
    {"smiles": "COc1ccc(F)c2c1cc(C)n2CCNc1cc(-c2ccc(-c3c[nH]cn3)cc2)ncn1", "note": "[compound 191, [2-(7-Fluoro-4-methoxy-2-methyl-indol-1-yl)-ethyl]-{6-[4-(1H-imidazol-4-yl)-phenyl]-pyrimidin-4-yl}-amine]", "values": [
      {"measurement": "IC50", "setting": "[1]", "result": 13, "unit": "nM"},
      {"measurement": "IC50", "setting": "[2]", "result": 38, "unit": "nM"}
    ]},
    {"smiles": "COc1ccc(F)c2c1cc(C)n2CCNc1cc(-c2ccc(-c3ncc[nH]3)cc2)ncn1", "note": "[compound 192, [2-(7-Fluoro-4-methoxy-2-methyl-indol-1-yl)-ethyl]-{6-[4-(1H-imidazol-2-yl)-phenyl]-pyrimidin-4-yl}-amine]", "values": [
      {"measurement": "IC50", "setting": "[1]", "result": 23, "unit": "nM"},
      {"measurement": "IC50", "setting": "[2]", "result": 287, "unit": "nM"}
    ]},
    {"smiles": "COc1ccc(F)c2c1cc(C)n2CCNc1cc(-c2ccc(-c3ccn[nH]3)cc2)ncn1", "note": "[compound 193, [2-(7-Fluoro-4-methoxy-2-methyl-indol-1-yl)-ethyl]-{6-[4-(2H-pyrazol-3-yl)-phenyl]-pyrimidin-4-yl}-amine]", "values": [
      {"measurement": "IC50", "setting": "[1]", "result": 4, "unit": "nM"},
      {"measurement": "IC50", "setting": "[2]", "result": 39, "unit": "nM"}
    ]},
    {"smiles": "COc1cccc2c1cc(C)n2CCNc1cc(-c2ccc(-c3noc(=O)[nH]3)cc2)ncn1", "note": "[compound 194, 3-(4-{6-[2-(4-Methoxy-2-methyl-indol-1-yl)-ethylamino]-pyrimidin-4-yl}-phenyl)-4H-[1,2,4]oxadiazol-5-one]", "values": [
      {"measurement": "IC50", "setting": "[1]", "result": 10, "unit": "nM"},
      {"measurement": "IC50", "setting": "[2]", "result": 172, "unit": "nM"}
    ]},
    {"smiles": "Cc1nc(-c2ccc(-c3cc(NCCn4c(C)cc5c(C)ccc(F)c54)ncn3)cc2)cs1", "note": "[compound 195]", "values": [
      {"measurement": "IC50", "setting": "[1]", "result": 260, "unit": "nM"},
      {"measurement": "IC50", "setting": "[2]", "result": 534, "unit": "nM"}
    ]},
    {"smiles": "CCN1Cc2cc(-c3cc(NCCn4c(C)cc5c(OC)cccc54)ncn3)ccc2C1=O", "note": "[compound 197, 2-Ethyl-5-{6-[2-(4-methoxy-2-methyl-indol-1-yl)-ethylamino]-pyrimidin-4-yl}-2,3-dihydro-isoindol-1-one]", "values": [
      {"measurement": "IC50", "setting": "[1]", "result": 32, "unit": "nM"},
      {"measurement": "IC50", "setting": "[2]", "result": 751, "unit": "nM"}
    ]},
    {"smiles": "Cc1cc2c(Cl)ccc(Cl)c2n1CCNc1cc(-c2ccc3[nH]c(C(=O)O)cc3c2)ncn1", "note": "[compound 198]", "values": [
      {"measurement": "IC50", "setting": "[1]", "result": 96, "unit": "nM"},
      {"measurement": "IC50", "setting": "[2]", "result": 299, "unit": "nM"}
    ]},
    {"smiles": "COc1cc(F)c(F)c2c1cc(C)n2CCNc1cc(-c2ccc3c(c2)CC(=O)N3)ncn1", "note": "[compound 199]", "values": [
      {"measurement": "IC50", "setting": "[1]", "result": 102, "unit": "nM"},
      {"measurement": "IC50", "setting": "[2]", "result": 166, "unit": "nM"}
    ]},
    {"smiles": "Cc1cc(F)cc2c1cc(C)n2CCNc1cc(-c2ccc(-c3cc(O)no3)cc2)ncn1", "note": "[compound 200, 5-(4-{6-[2-(6-Fluoro-2,4-dimethyl-indol-1-yl)-ethylamino]-pyrimidin-4-yl}-phenyl)-isoxazol-3-ol]", "values": [
      {"measurement": "IC50", "setting": "[1]", "result": 37, "unit": "nM"},
      {"measurement": "IC50", "setting": "[2]", "result": 111, "unit": "nM"}
    ]},
    {"smiles": "Cc1ccc(Cl)c2c1cc(C)n2CCNc1cc(-c2ccc3[nH]c(C(=O)O)cc3c2)ncn1", "note": "[compound 201]", "values": [
      {"measurement": "IC50", "setting": "[1]", "result": 232, "unit": "nM"},
      {"measurement": "IC50", "setting": "[2]", "result": 389, "unit": "nM"}
    ]},
    {"smiles": "COc1ccc(F)c2c1cc(C)n2CCNc1cc(-c2ccc(-c3cnco3)cc2)ncn1", "note": "[compound 202, [2-(7-Fluoro-4-methoxy-2-methyl-indol-1-yl)-ethyl]-[6-(4-oxazol-5-yl-phenyl)-pyrimidin-4-yl]-amine]", "values": [
      {"measurement": "IC50", "setting": "[1]", "result": 16, "unit": "nM"},
      {"measurement": "IC50", "setting": "[2]", "result": 105, "unit": "nM"}
    ]},
    {"smiles": "COc1ccc(F)c2c1cc(C)n2CCNc1cc(-c2ccc3c(c2)CN(C)C3=O)ncn1", "note": "[compound 204, 5-{6-[2-(7-Fluoro-4-methoxy-2-methyl-indol-1-yl)-ethylamino]-pyrimidin-4-yl}-2-methyl-2,3-dihydro-isoindol-1-one]", "values": [
      {"measurement": "IC50", "setting": "[1]", "result": 31, "unit": "nM"},
      {"measurement": "IC50", "setting": "[2]", "result": 182, "unit": "nM"}
    ]},
    {"smiles": "COc1cc(F)cc2c1cc(C)n2CCNc1cc(-c2ccc(-c3ccns3)cc2)ncn1", "note": "[compound 205, [2-(6-Fluoro-4-methoxy-2-methyl-indol-1-yl)-ethyl]-[6-(4-isothiazol-5-yl-phenyl)-pyrimidin-4-yl]-amine]", "values": [
      {"measurement": "IC50", "setting": "[1]", "result": 44, "unit": "nM"},
      {"measurement": "IC50", "setting": "[2]", "result": 334, "unit": "nM"}
    ]}
  ]
}
